Results from US10750743B2, “Pyridazinone herbicides” (E.I. DU PONT DE NEMOURS AND COMPANY, priority 2015, dated 2020).

Tests used:
Type in all cases: in vivo
[1] = tested on: ducksalad (Heteranthera limosa); test: Test B flooded paddy test, visual rating; settings: Flood, 250 g ai/ha, applied to paddy water, rated after 13 to 15 d
Description: (§1) Plant species in the flooded paddy test selected from rice (Oryza sativa), sedge, umbrella (small-flower umbrella sedge, Cyperus difformis), ducksalad (Heteranthera limosa), and barnyardgrass (Echinochloa crus-galli) were grown to the 2-leaf stage for testing. At time of treatment, test pots were flooded to 3 cm above the soil surface, treated by application of test compounds directly to the paddy water, and then maintained at that water depth for the duration of the test. Treated plants and controls were maintained in a greenhouse for 13 to 15 d, after which time all species were compared to controls and visually evaluated. Plant response ratings, summarized in Table B, are based on a scale of 0 to 100 where 0 is no effect and 100 is complete control. A dash (-) response means no test result.

[2] = tested on: barnyardgrass (Echinochloa crus-galli); test: Test B flooded paddy test, visual rating; settings: Flood, 250 g ai/ha, applied to paddy water, rated after 13 to 15 d
Description: as §1

[3] = tested on: sedge, umbrella (small-flower umbrella sedge, Cyperus difformis); test: Test B flooded paddy test, visual rating; settings: Flood, 250 g ai/ha, applied to paddy water, rated after 13 to 15 d
Description: as §1

[4] = tested on: rice (Oryza sativa); test: Test B flooded paddy test, visual rating; settings: Flood, 250 g ai/ha, applied to paddy water, rated after 13 to 15 d
Description: as §1

[5] = tested on: ragweed (common ragweed, Ambrosia elatior); test: Test A preemergence, directed soil spray, visual injury rating; settings: 0 is no effect, 100 is complete control
Outline: (§2)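 Compounds in a surfactant-containing solvent were applied as a directed soil spray preemergence, or postemergence to plants 2-10 cm tall at the one- to two-leaf stage, in loam-sand blend. After about 10 d in the greenhouse, injury was rated visually against untreated controls on a 0-100 scale (100 = complete control).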

[6] = tested on: pigweed (Amaranthus retroflexus); test: as above; settings: 0 is no effect, 100 is complete control
Outline: as §2

[7] = tested on: kochia (Kochia scoparia); test: as above; settings: 0 is no effect, 100 is complete control
Outline: as §2

[8] = tested on: barnyardgrass (Echinochloa crus-galli); test: as above; settings: 0 is no effect, 100 is complete control
Outline: as §2

[9] = tested on: ryegrass, It. (Italian ryegrass, Lolium multiflorum); test: as above; settings: 0 is no effect, 100 is complete control
Outline: as §2

[10] = tested on: foxtail, giant (giant foxtail, Setaria faberii); test: as above; settings: 0 is no effect, 100 is complete control
Outline: as §2

[11] = tested on: corn (Zea mays); test: Test A postemergence application, visual injury rating; settings: 0 to 100 scale, 0 no effect, 100 complete control
Outline: as §2

[12] = tested on: ragweed (common ragweed, Ambrosia elatior); test: as above; settings: 0 to 100 scale, 0 no effect, 100 complete control
Outline: as §2

[13] = tested on: pigweed (Amaranthus retroflexus); test: as above; settings: 0 to 100 scale, 0 no effect, 100 complete control
Outline: as §2

[14] = tested on: kochia (Kochia scoparia); test: as above; settings: 0 to 100 scale, 0 no effect, 100 complete control
Outline: as §2

[15] = tested on: barnyardgrass (Echinochloa crus-galli); test: as above; settings: 0 to 100 scale, 0 no effect, 100 complete control
Outline: as §2

[16] = tested on: wheat (Triticum aestivum); test: as above; settings: 0 to 100 scale, 0 no effect, 100 complete control
Outline: as §2

[17] = tested on: galium (catchweed bedstraw, Galium aparine); test: as above; settings: 0 to 100 scale, 0 no effect, 100 complete control
Outline: as §2

[18] = tested on: blackgrass (Alopecurus myosuroides); test: as above; settings: 0 to 100 scale, 0 no effect, 100 complete control
Outline: as §2

[19] = tested on: ryegrass, It. (Italian ryegrass, Lolium multiflorum); test: as above; settings: 0 to 100 scale, 0 no effect, 100 complete control
Outline: as §2

[20] = tested on: foxtail, giant (giant foxtail, Setaria faberii); test: as above; settings: 0 to 100 scale, 0 no effect, 100 complete control
Outline: as §2

Row | SMILES | Ducksalad plant response rating (0 to 100 scale, 0 is no effect, 100 is complete control) [1] | Barnyardgrass plant response rating (0 to 100 scale, 0 is no effect, 100 is complete control) [2] | Sedge, Umbrella plant response rating (0 to 100 scale, 0 is no effect, 100 is complete control) [3] | Rice plant response rating (0 to 100 scale, 0 is no effect, 100 is complete control) [4] | Plant response rating (0 to 100 scale), Ragweed ([5]; 125 g ai/ha) | Plant response rating (0 to 100 scale), Ragweed ([5]; 500 g ai/ha) | Plant response rating (0 to 100 scale), Pigweed ([6]; 125 g ai/ha) | Plant response rating (0 to 100 scale), Pigweed ([6]; 500 g ai/ha) | Plant response rating (0 to 100 scale), Kochia ([7]; 125 g ai/ha) | Plant response rating (0 to 100 scale), Kochia ([7]; 500 g ai/ha) | Plant response rating (0 to 100 scale), Barnyardgrass ([8]; 125 g ai/ha) | Plant response rating (0 to 100 scale), Barnyardgrass ([8]; 500 g ai/ha) | Plant response rating (0 to 100 scale), Ryegrass, It. ([9]; 125 g ai/ha) | Plant response rating (0 to 100 scale), Ryegrass, It. ([9]; 500 g ai/ha) | Plant response rating (0 to 100 scale), Foxtail, Giant ([10]; 125 g ai/ha) | Plant response rating (0 to 100 scale), Foxtail, Giant ([10]; 500 g ai/ha) | Corn plant response rating ([11]; 125 g ai/ha) | Corn plant response rating ([11]; 500 g ai/ha) | Ragweed plant response rating ([12]; 125 g ai/ha) | Ragweed plant response rating ([12]; 500 g ai/ha) | other results
1 | CC(=O)Oc1c(C)nn(C)c(=O)c1-c1cncc2ccccc12 [Compound 8] | 0 | 0 | 0 | 0 | 0 | 0 | 20 | 70 | 0 | 0 | 0 | 0 | 0 | 30 | 0 | 20 | 0 | 0 | 0 | 0 | Pigweed plant response rating ([13]; 125 g ai/ha): 70; Pigweed plant response rating ([13]; 500 g ai/ha): 80; Kochia plant response rating ([14]; 125 g ai/ha): 30; Kochia plant response rating ([14]; 500 g ai/ha): 80; Barnyardgrass plant response rating ([15]; 125 g ai/ha): 0; Barnyardgrass plant response rating ([15]; 500 g ai/ha): 20; Wheat plant response rating ([16]; 125 g ai/ha): 0; Wheat plant response rating ([16]; 500 g ai/ha): 0; Galium plant response rating ([17]; 125 g ai/ha): 10; Galium plant response rating ([17]; 500 g ai/ha): 80; Blackgrass plant response rating ([18]; 125 g ai/ha): 0; Blackgrass plant response rating ([18]; 500 g ai/ha): 0; Ryegrass, It. plant response rating ([19]; 125 g ai/ha): 0; Ryegrass, It. plant response rating ([19]; 500 g ai/ha): 30; Foxtail, Giant plant response rating ([20]; 125 g ai/ha): 0; Foxtail, Giant plant response rating ([20]; 500 g ai/ha): 20
2 | Cc1nn(C)c(=O)c(-c2c(C)sc3ncccc23)c1OC(=O)OC(C)C [Compound 15] | 0 | 0 | 0 | 0 | 0 | 0 | 0 | 0 | 0 | 0 | 0 | 0 | 0 | 0 | 0 | 0 | 0 | 0 | 0 | 0 | Pigweed plant response rating ([13]; 125 g ai/ha): 0; Pigweed plant response rating ([13]; 500 g ai/ha): 0; Kochia plant response rating ([14]; 125 g ai/ha): 0; Kochia plant response rating ([14]; 500 g ai/ha): 0; Barnyardgrass plant response rating ([15]; 125 g ai/ha): 0; Barnyardgrass plant response rating ([15]; 500 g ai/ha): 0; Wheat plant response rating ([16]; 125 g ai/ha): 0; Wheat plant response rating ([16]; 500 g ai/ha): 0; Galium plant response rating ([17]; 125 g ai/ha): 0; Galium plant response rating ([17]; 500 g ai/ha): 0; Blackgrass plant response rating ([18]; 125 g ai/ha): 0; Blackgrass plant response rating ([18]; 500 g ai/ha): 0; Ryegrass, It. plant response rating ([19]; 125 g ai/ha): 0; Ryegrass, It. plant response rating ([19]; 500 g ai/ha): 0; Foxtail, Giant plant response rating ([20]; 125 g ai/ha): 0; Foxtail, Giant plant response rating ([20]; 500 g ai/ha): 0
3 | COc1ncc(-c2c(O)c(C)nn(C)c2=O)c2ccccc12 [Compound 16] | 0 | 0 | 0 | 0 | 30 | 70 | 30 | 100 | 40 | 100 | 0 | 0 | 80 | 90 | 0 | 0 | 0 | 0 | 30 | 70 | Pigweed plant response rating ([13]; 125 g ai/ha): 40; Pigweed plant response rating ([13]; 500 g ai/ha): 70; Kochia plant response rating ([14]; 125 g ai/ha): 70; Kochia plant response rating ([14]; 500 g ai/ha): 100; Barnyardgrass plant response rating ([15]; 125 g ai/ha): 0; Barnyardgrass plant response rating ([15]; 500 g ai/ha): 10; Wheat plant response rating ([16]; 125 g ai/ha): 0; Wheat plant response rating ([16]; 500 g ai/ha): 0; Galium plant response rating ([17]; 125 g ai/ha): 70; Galium plant response rating ([17]; 500 g ai/ha): 100; Blackgrass plant response rating ([18]; 125 g ai/ha): 0; Blackgrass plant response rating ([18]; 500 g ai/ha): 20; Ryegrass, It. plant response rating ([19]; 125 g ai/ha): 90; Ryegrass, It. plant response rating ([19]; 500 g ai/ha): 100; Foxtail, Giant plant response rating ([20]; 125 g ai/ha): 0; Foxtail, Giant plant response rating ([20]; 500 g ai/ha): 0
